Source: paper PMC7265341, “Quantifying CDK inhibitor selectivity in live cells” (Nature Communications, 2020)
Like-named read-outs stand apart in the source and are kept apart here.

How the values were obtained:
[1] = biological target: CDK9/Cyclin K (Homo sapiens, UniProt P50750); experiment: NanoBRET live-cell target engagement, NanoLuc-CDK9/Cyclin K in HEK-293; format: binding; conditions: 10µM
[2] = biological target: CDK5/CDK5R1 (Homo sapiens, UniProt Q00535); experiment: NanoBRET live-cell target engagement, CDK5-NanoLuc/CDK5R1 in HEK-293; format: binding; conditions: 10µM
[3] = biological target: T1, CDK11A/Cyclin L2 (Homo sapiens, UniProt Q9UQ88); experiment: NanoBRET live-cell target engagement, CDK11A-NanoLuc/Cyclin L2 in HEK-293; format: binding
T1 sequence (Q9UQ88 1-783): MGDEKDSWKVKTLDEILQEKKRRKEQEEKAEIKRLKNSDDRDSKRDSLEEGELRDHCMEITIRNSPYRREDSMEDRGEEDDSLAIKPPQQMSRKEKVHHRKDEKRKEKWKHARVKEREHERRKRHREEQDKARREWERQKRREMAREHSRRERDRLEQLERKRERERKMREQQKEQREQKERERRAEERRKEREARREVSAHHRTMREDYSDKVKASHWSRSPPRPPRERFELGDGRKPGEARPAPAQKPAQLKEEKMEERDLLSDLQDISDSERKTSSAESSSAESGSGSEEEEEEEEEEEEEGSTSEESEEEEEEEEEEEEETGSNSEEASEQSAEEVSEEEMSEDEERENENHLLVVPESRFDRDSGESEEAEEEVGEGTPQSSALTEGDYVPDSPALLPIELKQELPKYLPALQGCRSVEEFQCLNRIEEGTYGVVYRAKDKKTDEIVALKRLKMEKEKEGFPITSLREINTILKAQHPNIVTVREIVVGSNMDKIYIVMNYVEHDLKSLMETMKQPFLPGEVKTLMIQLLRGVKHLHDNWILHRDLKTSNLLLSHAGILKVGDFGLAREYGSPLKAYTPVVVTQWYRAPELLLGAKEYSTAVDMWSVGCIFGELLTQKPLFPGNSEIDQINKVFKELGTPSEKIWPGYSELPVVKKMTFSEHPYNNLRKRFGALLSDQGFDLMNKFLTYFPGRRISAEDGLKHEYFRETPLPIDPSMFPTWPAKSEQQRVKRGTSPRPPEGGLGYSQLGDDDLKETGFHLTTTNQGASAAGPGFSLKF

[4] = biological target: CDK8/Cyclin C (Homo sapiens, UniProt P49336); experiment: NanoBRET live-cell target engagement, NanoLuc-CDK8/Cyclin C in HEK-293; format: binding; conditions: 10µM
[5] = biological target: CDK4/Cyclin D1 (Homo sapiens, UniProt P11802); experiment: NanoBRET live-cell target engagement, NanoLuc-CDK4/Cyclin D1 in HEK-293; format: binding; conditions: 10µM
[6] = biological target: CDK17/Cyclin Y (Homo sapiens, UniProt Q00537); experiment: NanoBRET live-cell target engagement, CDK17-NanoLuc/Cyclin Y in HEK-293; format: binding; conditions: 10µM
[7] = biological target: CDK2/Cyclin E1 (Homo sapiens, UniProt P24941); experiment: NanoBRET live-cell target engagement, CDK2-NanoLuc/Cyclin E1 in HEK-293; format: binding; conditions: 10µM
[8] = biological target: CDK19/Cyclin C (Homo sapiens, UniProt Q9BWU1); experiment: NanoBRET live-cell target engagement, NanoLuc-CDK19/Cyclin C in HEK-293; conditions: 10µM
Chain of CDK19/Cyclin C (Q9BWU1 whole entry): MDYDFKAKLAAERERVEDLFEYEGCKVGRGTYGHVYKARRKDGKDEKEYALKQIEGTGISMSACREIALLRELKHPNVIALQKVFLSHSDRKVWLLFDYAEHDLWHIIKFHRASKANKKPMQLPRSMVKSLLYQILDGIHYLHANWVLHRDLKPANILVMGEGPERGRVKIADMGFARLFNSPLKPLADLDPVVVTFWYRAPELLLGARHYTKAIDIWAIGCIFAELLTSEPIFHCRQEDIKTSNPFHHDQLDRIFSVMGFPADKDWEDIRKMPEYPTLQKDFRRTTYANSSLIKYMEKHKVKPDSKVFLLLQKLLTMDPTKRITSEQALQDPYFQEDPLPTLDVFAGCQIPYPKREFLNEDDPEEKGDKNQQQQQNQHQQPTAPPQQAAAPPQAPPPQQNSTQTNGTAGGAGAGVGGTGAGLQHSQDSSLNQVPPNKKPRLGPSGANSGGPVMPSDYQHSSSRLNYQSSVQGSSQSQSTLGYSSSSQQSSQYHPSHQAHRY
Chain of CDK19/Cyclin C (P24863 whole entry partner): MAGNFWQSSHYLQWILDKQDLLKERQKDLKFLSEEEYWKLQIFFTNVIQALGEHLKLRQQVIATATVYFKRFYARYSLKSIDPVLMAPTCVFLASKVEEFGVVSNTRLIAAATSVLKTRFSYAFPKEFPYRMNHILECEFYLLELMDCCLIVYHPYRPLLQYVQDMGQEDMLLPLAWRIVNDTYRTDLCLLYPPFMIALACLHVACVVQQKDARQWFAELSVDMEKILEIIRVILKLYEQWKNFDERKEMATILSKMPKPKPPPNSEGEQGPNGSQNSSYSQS

[9] = biological target: CDK12/Cyclin K (Homo sapiens, UniProt Q9NYV4); experiment: NanoBRET live-cell target engagement, CDK12-NanoLuc/Cyclin K in HEK-293; format: binding
Chain of CDK12/Cyclin K (Q9NYV4 1-1481 isoform Q9NYV4-2): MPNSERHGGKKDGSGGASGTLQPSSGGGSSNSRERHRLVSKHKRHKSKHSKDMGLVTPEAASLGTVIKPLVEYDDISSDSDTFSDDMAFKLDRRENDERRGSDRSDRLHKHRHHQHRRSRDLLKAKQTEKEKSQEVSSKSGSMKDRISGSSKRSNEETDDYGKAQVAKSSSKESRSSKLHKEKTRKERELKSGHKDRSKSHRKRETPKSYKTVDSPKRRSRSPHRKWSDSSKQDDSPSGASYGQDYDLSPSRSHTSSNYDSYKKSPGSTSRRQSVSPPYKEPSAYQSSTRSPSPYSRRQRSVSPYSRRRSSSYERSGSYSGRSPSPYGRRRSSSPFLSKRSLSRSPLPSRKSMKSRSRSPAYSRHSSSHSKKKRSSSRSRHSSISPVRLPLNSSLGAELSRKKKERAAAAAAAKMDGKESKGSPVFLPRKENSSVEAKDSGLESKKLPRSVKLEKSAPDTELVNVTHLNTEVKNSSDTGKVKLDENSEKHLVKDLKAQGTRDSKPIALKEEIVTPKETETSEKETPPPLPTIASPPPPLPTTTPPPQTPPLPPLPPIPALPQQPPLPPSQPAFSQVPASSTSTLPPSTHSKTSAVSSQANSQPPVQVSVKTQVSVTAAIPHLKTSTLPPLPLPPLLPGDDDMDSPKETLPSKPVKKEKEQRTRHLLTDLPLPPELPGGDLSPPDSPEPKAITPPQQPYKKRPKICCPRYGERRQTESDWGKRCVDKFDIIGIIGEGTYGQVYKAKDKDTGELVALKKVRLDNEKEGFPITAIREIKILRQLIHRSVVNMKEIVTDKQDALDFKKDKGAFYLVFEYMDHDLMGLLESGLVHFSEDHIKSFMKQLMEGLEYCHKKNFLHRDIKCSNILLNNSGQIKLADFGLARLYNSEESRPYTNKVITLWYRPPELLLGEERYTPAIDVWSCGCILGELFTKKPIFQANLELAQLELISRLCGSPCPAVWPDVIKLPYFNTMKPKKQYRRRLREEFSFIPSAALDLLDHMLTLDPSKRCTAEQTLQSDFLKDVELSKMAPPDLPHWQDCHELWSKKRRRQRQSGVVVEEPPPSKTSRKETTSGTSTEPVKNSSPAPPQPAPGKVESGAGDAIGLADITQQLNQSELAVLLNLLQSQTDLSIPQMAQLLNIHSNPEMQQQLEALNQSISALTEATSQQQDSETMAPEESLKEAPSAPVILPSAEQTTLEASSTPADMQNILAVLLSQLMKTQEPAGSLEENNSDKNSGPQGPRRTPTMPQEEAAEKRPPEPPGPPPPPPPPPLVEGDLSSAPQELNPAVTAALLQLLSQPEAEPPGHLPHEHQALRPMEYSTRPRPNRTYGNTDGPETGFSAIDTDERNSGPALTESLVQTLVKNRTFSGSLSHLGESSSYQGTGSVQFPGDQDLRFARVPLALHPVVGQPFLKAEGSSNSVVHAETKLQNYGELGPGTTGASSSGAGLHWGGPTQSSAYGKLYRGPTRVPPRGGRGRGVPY
Chain of CDK12/Cyclin K (O75909 whole entry partner): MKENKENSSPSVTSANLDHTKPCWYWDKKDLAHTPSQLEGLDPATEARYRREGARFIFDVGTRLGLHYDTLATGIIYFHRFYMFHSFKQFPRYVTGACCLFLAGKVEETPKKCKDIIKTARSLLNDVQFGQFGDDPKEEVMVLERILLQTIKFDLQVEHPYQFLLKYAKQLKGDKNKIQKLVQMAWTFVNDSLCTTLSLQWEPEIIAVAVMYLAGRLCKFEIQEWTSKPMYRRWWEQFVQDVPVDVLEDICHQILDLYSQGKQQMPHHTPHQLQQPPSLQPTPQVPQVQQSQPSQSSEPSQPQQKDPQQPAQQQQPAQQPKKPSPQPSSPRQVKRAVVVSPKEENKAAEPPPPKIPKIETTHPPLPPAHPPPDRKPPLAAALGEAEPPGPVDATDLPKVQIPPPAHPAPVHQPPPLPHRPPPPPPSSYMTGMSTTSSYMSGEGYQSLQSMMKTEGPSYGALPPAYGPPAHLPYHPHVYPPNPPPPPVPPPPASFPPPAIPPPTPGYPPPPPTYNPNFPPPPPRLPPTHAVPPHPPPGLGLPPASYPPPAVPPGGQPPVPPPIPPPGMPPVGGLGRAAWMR

[10] = biological target: CDK20/Cyclin H (Homo sapiens, UniProt Q8IZL9); experiment: NanoBRET live-cell target engagement, NanoLuc-CDK20/Cyclin H in HEK-293; format: binding; conditions: 10µM
[11] = biological target: CDK3/Cyclin E1 (Homo sapiens, UniProt Q00526); experiment: NanoBRET live-cell target engagement, CDK3-NanoLuc/Cyclin E1 in HEK-293; format: binding; conditions: 10µM
[12] = biological target: CDK13/Cyclin K (Homo sapiens, UniProt Q14004); experiment: NanoBRET live-cell target engagement, CDK13-NanoLuc/Cyclin K in HEK-293; format: binding
[13] = biological target: CDK6/Cyclin D1 (Homo sapiens, UniProt Q00534); experiment: NanoBRET live-cell target engagement, NanoLuc-CDK6/Cyclin D1 in HEK-293; format: binding; conditions: 10µM
Chain of CDK6/Cyclin D1 (Q00534 whole entry): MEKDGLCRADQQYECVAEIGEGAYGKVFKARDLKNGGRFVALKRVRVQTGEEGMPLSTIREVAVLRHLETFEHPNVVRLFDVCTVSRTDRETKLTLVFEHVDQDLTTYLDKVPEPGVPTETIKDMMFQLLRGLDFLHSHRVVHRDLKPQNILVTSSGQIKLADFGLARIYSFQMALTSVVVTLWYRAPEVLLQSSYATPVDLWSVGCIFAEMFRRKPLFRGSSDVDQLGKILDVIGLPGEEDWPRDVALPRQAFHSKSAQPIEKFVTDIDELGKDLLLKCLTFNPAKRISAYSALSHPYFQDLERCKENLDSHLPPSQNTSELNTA
Chain of CDK6/Cyclin D1 (P24385 whole entry partner): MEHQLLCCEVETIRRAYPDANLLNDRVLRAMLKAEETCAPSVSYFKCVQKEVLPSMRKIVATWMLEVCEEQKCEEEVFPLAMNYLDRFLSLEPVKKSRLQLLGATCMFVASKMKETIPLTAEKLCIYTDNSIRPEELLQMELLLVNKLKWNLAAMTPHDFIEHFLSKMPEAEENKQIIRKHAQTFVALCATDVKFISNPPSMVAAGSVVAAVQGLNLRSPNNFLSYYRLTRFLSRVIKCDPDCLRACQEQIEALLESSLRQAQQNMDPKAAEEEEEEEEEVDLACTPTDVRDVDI

[14] = biological target: CDK11B/Cyclin L2 (Homo sapiens, UniProt P21127); experiment: NanoBRET live-cell target engagement, CDK11B-NanoLuc/Cyclin L2 in HEK-293; format: binding; conditions: 10µM
[15] = biological target: CDK1/Cyclin E1 (Homo sapiens, UniProt P06493); experiment: NanoBRET live-cell target engagement, CDK1-NanoLuc/Cyclin E1 in HEK-293; format: binding; conditions: 10µM
[16] = biological target: CDK10/Cyclin L2 (Homo sapiens, UniProt Q15131); experiment: NanoBRET live-cell target engagement, CDK10-NanoLuc/Cyclin L2 in HEK-293; conditions: for IC50: read-out: CDK10/L2 IC50
[17] = biological target: CDK18/Cyclin Y (Homo sapiens, UniProt Q07002); experiment: NanoBRET live-cell target engagement, CDK18-NanoLuc/Cyclin Y in HEK-293; format: binding; conditions: 10µM
[18] = biological target: CDK15/Cyclin Y (Homo sapiens, UniProt Q96Q40); experiment: NanoBRET live-cell target engagement, NanoLuc-CDK15/Cyclin Y in HEK-293; format: binding; conditions: 10µM
Chain of CDK15/Cyclin Y (Q96Q40 whole entry): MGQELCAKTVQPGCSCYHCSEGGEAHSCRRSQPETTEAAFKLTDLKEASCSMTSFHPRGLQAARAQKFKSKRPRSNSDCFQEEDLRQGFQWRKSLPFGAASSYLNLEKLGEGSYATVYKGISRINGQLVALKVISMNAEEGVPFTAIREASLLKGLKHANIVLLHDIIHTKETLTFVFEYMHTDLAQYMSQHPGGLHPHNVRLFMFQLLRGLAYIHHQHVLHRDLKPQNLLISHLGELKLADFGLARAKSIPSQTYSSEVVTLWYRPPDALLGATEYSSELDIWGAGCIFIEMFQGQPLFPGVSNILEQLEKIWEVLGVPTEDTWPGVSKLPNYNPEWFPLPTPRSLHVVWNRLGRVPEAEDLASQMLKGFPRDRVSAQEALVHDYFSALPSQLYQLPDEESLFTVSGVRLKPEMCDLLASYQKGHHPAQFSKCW
Chain of CDK15/Cyclin Y (Q8ND76 whole entry partner): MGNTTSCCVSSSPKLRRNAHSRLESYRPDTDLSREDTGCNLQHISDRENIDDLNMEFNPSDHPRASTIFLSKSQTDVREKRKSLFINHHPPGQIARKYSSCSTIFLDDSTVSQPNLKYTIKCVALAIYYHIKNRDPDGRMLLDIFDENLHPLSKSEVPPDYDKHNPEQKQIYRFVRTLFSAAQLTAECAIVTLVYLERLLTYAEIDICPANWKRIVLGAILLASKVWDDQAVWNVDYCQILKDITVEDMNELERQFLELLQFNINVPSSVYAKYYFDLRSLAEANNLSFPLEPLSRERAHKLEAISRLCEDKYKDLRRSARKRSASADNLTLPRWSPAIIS

[19] = biological target: CDK16/Cyclin Y (Homo sapiens, UniProt Q00536); experiment: NanoBRET live-cell target engagement, CDK16-NanoLuc/Cyclin Y in HEK-293; format: binding; conditions: 10µM

Chain of CDK9/Cyclin K (P50750 whole entry): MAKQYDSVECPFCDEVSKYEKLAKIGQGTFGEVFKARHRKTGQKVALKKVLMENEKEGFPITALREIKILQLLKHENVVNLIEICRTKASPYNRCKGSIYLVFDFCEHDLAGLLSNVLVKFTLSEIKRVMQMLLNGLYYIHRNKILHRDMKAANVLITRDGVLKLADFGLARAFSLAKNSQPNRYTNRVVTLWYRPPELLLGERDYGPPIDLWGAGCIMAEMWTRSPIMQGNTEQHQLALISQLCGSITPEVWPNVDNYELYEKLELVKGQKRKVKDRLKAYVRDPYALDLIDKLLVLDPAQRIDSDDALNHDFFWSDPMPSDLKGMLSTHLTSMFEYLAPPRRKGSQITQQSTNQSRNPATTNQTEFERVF
Chain of CDK9/Cyclin K (O75909 whole entry partner): as the sequence (O75909 whole entry partner) above

Structure (SMILES): CN(C)C/C=C/C(=O)Nc1ccc(C(=O)Nc2cccc(Nc3ncc(Cl)c(-c4c[nH]c5ccccc45)n3)c2)cc1 [THZ1]
- CDK9/K Inhibition at 10µM (%) ([1]; average of experiments): 70.0%
- CDK9/K Inhibition at 10µM (%) ([1]; independent experiment 1): 44.1%
- CDK9/K Inhibition at 10µM (%) ([1]; independent experiment 2): 96.0%
- CDK5/CDK5R1 Inhibition at 10µM (%) ([2]; average of experiments): 42.5%
- CDK5/CDK5R1 Inhibition at 10µM (%) ([2]; independent experiment 1): 19.2%
- CDK5/CDK5R1 Inhibition at 10µM (%) ([2]; independent experiment 2): 65.8%
- CDK11a/L2 Inhibition at 10µM (%) ([3]; average of experiments): 42.5%
- CDK11a/L2 Inhibition at 10µM (%) ([3]; independent experiment 1): 8.0%
- CDK11a/L2 Inhibition at 10µM (%) ([3]; independent experiment 2): 77.1%
- IC50 ([3]; independent experiment 1, read-out: CDK11a/L2 IC50): 450 nM
- IC50 ([3]; independent experiment 2, read-out: CDK11a/L2 IC50): 230 nM
- IC50 ([3]; independent experiment 3, read-out: CDK11a/L2 IC50): 218 nM
- IC50 ([3]; live HEK-293, 2 h, mean ± S.E.M. (n=3) or mean (n=2), read-out: IC50 for CDK/cyclin complexes, CDK11a/L2): 300 nM
- CDK8/C Inhibition at 10µM (%) ([4]; average of experiments): 62.9%
- CDK8/C Inhibition at 10µM (%) ([4]; independent experiment 1): 34.6%
- CDK8/C Inhibition at 10µM (%) ([4]; independent experiment 2): 91.2%
- CDK4/D1 Inhibition at 10µM (%) ([5]; average of experiments): 53.8%
- CDK4/D1 Inhibition at 10µM (%) ([5]; independent experiment 1): 13.3%
- CDK4/D1 Inhibition at 10µM (%) ([5]; independent experiment 2): 94.2%
- CDK17/Y Inhibition at 10µM (%) ([6]; average of experiments): 50.4%
- CDK17/Y Inhibition at 10µM (%) ([6]; independent experiment 1): 73.0%
- CDK17/Y Inhibition at 10µM (%) ([6]; independent experiment 2): 27.8%
- CDK2/E1 Inhibition at 10µM (%) ([7]; average of experiments): 16.1%
- CDK2/E1 Inhibition at 10µM (%) ([7]; independent experiment 1): 27.6%
- CDK2/E1 Inhibition at 10µM (%) ([7]; independent experiment 2): 4.6%
- CDK19/C Inhibition at 10µM (%) ([8]; average of experiments): 66.6%
- CDK19/C Inhibition at 10µM (%) ([8]; independent experiment 1): 44.1%
- CDK19/C Inhibition at 10µM (%) ([8]; independent experiment 2): 89.1%
- CDK12/K Inhibition at 10µM (%) ([9]; average of experiments): 45.5%
- CDK12/K Inhibition at 10µM (%) ([9]; independent experiment 1): 26.4%
- CDK12/K Inhibition at 10µM (%) ([9]; independent experiment 2): 64.6%
- CDK12 occupancy at 10 µM ([9]; primary screen, live HEK-293): ~50%
- CDK20/H Inhibition at 10µM (%) ([10]; independent experiment 1): 63.8%
- CDK20/H Inhibition at 10µM (%) ([10]; independent experiment 2): 90.1%
- CDK3/E1 Inhibition at 10µM (%) ([11]; average of experiments): 55.0%
- CDK3/E1 Inhibition at 10µM (%) ([11]; independent experiment 1): 14.7%
- CDK3/E1 Inhibition at 10µM (%) ([11]; independent experiment 2): 95.2%
- CDK13/K Inhibition at 10µM (%) ([12]; average of experiments): 48.1%
- CDK13/K Inhibition at 10µM (%) ([12]; independent experiment 1): 34.3%
- CDK13/K Inhibition at 10µM (%) ([12]; independent experiment 2): 62.0%
- CDK13 occupancy at 10 µM ([12]; primary screen, live HEK-293): ~50%
- CDK6/D1 Inhibition at 10µM (%) ([13]; average of experiments): 73.8%
- CDK6/D1 Inhibition at 10µM (%) ([13]; independent experiment 1): 53.8%
- CDK6/D1 Inhibition at 10µM (%) ([13]; independent experiment 2): 93.8%
- CDK11b/L2 Inhibition at 10µM (%) ([14]; average of experiments): 34.5%
- CDK11b/L2 Inhibition at 10µM (%) ([14]; independent experiment 1): 13.3%
- CDK11b/L2 Inhibition at 10µM (%) ([14]; independent experiment 2): 55.7%
- CDK1/E1 Inhibition at 10µM (%) ([15]; average of experiments): 91.9%
- CDK1/E1 Inhibition at 10µM (%) ([15]; independent experiment 1): 87.2%
- CDK1/E1 Inhibition at 10µM (%) ([15]; independent experiment 2): 96.6%
- CDK10/L2 Inhibition at 10µM (%) ([16]; average of experiments): 48.0%
- CDK10/L2 Inhibition at 10µM (%) ([16]; independent experiment 1): 11.4%
- CDK10/L2 Inhibition at 10µM (%) ([16]; independent experiment 2): 84.6%
- IC50 ([16]; average (± SEM where n=3)): 1000 ± 300 nM
- IC50 ([16]; independent experiment 1): 660 nM
- IC50 ([16]; independent experiment 2): 790 nM
- IC50 ([16]; independent experiment 3): 1500 nM
- CDK18/Y Inhibition at 10µM (%) ([17]; average of experiments): 48.6%
- CDK18/Y Inhibition at 10µM (%) ([17]; independent experiment 1): 73.0%
- CDK18/Y Inhibition at 10µM (%) ([17]; independent experiment 2): 24.3%
- CDK15/Y Inhibition at 10µM (%) ([18]; average of experiments): 64.9%
- CDK15/Y Inhibition at 10µM (%) ([18]; independent experiment 1): 40.7%
- CDK15/Y Inhibition at 10µM (%) ([18]; independent experiment 2): 89.2%
- CDK16/Y Inhibition at 10µM (%) ([19]; independent experiment 1): 74.4%
- CDK16/Y Inhibition at 10µM (%) ([19]; independent experiment 2): 11.2%
